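Dose response: 5 concentrations. Exposure: 48 h. Format: 96-well plates. Endpoint: linear interpolation; highest concentration if not reached. Here, GI50 denotes the concentration required for 50% inhibition of growth.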 Calls of active or inactive are those of the source. Cut-off read from the data, not from the text of the source: active = GI50 up to about 1.1 µM and inactive = higher.
Assays:
Test in all cases: DTP human tumour cell line panel, 48 h
UO-31 = tested on: UO-31
MOLT-4 = tested on: MOLT-4
Hs-578T = tested on: Hs-578T
NCI-H23 = tested on: NCI-H23
OVCAR-5 = tested on: OVCAR-5
OVCAR-8 = tested on: OVCAR-8
ACHN = tested on: ACHN
MDA-MB-435 = tested on: MDA-MB-435
SF-295 = tested on: SF-295
CCRF-CEM = tested on: CCRF-CEM
SNB-75 = tested on: SNB-75
U-251 = tested on: U-251
Malme-3M = tested on: Malme-3M
COLO 205 = tested on: COLO 205
MDA-MB-231 = tested on: MDA-MB-231
NCI/ADR-RES = tested on: NCI/ADR-RES
NCI-H460 = tested on: NCI-H460
NCI-H226 = tested on: NCI-H226
HOP-62 = tested on: HOP-62
CAKI-1 = tested on: CAKI-1

SMILES	GI50 (UO-31)	GI50 (MOLT-4)	GI50 (Hs-578T)	GI50 (NCI-H23)	GI50 (OVCAR-5)	GI50 (OVCAR-8)	GI50 (ACHN)	GI50 (MDA-MB-435)	GI50 (SF-295)	GI50 (CCRF-CEM)	GI50 (SNB-75)	GI50 (U-251)	GI50 (Malme-3M)	GI50 (COLO 205)	GI50 (MDA-MB-231)	GI50 (NCI/ADR-RES)	GI50 (NCI-H460)	GI50 (NCI-H226)	GI50 (HOP-62)	GI50 (CAKI-1)
C=C[C@H]1CN2CCc3c([nH]c4cc(O)ccc34)[C@@H]2C[C@@H]1C[C@H]1c2[nH]c3ccccc3c2CCN1C	2.09 µM (inactive)	3.57 µM (inactive)	3.53 µM (inactive)	16 µM (inactive)	17 µM (inactive)	6.11 µM (inactive)	5.28 µM (inactive)	2.01 µM (inactive)	4.53 µM (inactive)	1.69 µM (inactive)	2.11 µM (inactive)	1.77 µM (inactive)	13.8 µM (inactive)	1.77 µM (inactive)	6.05 µM (inactive)	9.06 µM (inactive)	2.07 µM (inactive)	18.7 µM (inactive)	4.45 µM (inactive)	6.04 µM (inactive)
CC(=O)Nc1ccc2c3c(cc(O)c2c1)N(C(=O)CCCCCCC(=O)Nc1ccc2c4c(cc(O)c2c1)N(C(=O)OC(C)(C)C)CC4CCl)CC3CCl (stereo not given)	1.04 µM (active)	< 0.01 µM (active)	0.264 µM (active)	0.0337 µM (active)	0.109 µM (active)	0.0973 µM (active)	0.0484 µM (active)	0.132 µM (active)	0.0776 µM (active)	< 0.01 µM (active)	0.0776 µM (active)	0.0205 µM (active)	0.083 µM (active)	0.103 µM (active)	0.319 µM (active)	> 35.4 µM (inactive)	0.0233 µM (active)	0.144 µM (active)	0.091 µM (active)	1.02 µM (active)
O=c1c2ccccc2sc2ccccc12	> 100 µM (inactive)	> 100 µM (inactive)	> 100 µM (inactive)	> 100 µM (inactive)	> 100 µM (inactive)	> 100 µM (inactive)	> 100 µM (inactive)	> 100 µM (inactive)	> 100 µM (inactive)	> 100 µM (inactive)	> 100 µM (inactive)	14.9 µM (inactive)	> 100 µM (inactive)	> 100 µM (inactive)	> 100 µM (inactive)	> 100 µM (inactive)	> 100 µM (inactive)	> 100 µM (inactive)	> 100 µM (inactive)	> 100 µM (inactive)
CCc1c(C)c(C#N)c(=S)n(C2OC(COC(C)=O)C(OC(C)=O)C(OC(C)=O)C2OC(C)=O)c1-c1ccccc1 (stereo not given)	> 24.6 µM (inactive)	> 31.6 µM (inactive)	20.7 µM (inactive)	> 31.6 µM (inactive)	> 31.6 µM (inactive)	> 31.6 µM (inactive)	23.7 µM (inactive)	> 31.6 µM (inactive)	16.2 µM (inactive)	33.7 µM (inactive)	1.84 µM (inactive)	17.3 µM (inactive)	> 31.6 µM (inactive)	> 31.6 µM (inactive)	28.4 µM (inactive)	> 31.6 µM (inactive)	> 31.6 µM (inactive)	18.5 µM (inactive)	15.8 µM (inactive)	72.3 µM (inactive)
COc1cccc2c1C(=O)c1c(O)c3c(c(O)c1C2=O)C[C@@](O)(C(=O)CO)C[C@@H]3OC1CC(N2CCOCC2C#N)C(O)C(C)O1 (stereo not given in full)	5.52e-05 µM (active)	1.83e-05 µM (active)	5.73e-05 µM (active)	2.45e-05 µM (active)	4.98e-05 µM (active)	5.18e-05 µM (active)	3.27e-05 µM (active)	7.4e-05 µM (active)	1.82e-05 µM (active)	1.94e-05 µM (active)	1.37e-05 µM (active)	3.01e-05 µM (active)	0.0002 µM (active)	0.000136 µM (active)	0.00011 µM (active)	5.36e-05 µM (active)	8.17e-06 µM (active)	1.46e-05 µM (active)	2.32e-05 µM (active)	3.53e-05 µM (active)
CN(/N=C(\C(=O)O)c1ccccc1)C1=NCCCN1	> 100 µM (inactive)	> 100 µM (inactive)	> 100 µM (inactive)	> 100 µM (inactive)	> 100 µM (inactive)	> 100 µM (inactive)	> 100 µM (inactive)	> 100 µM (inactive)	> 100 µM (inactive)	> 100 µM (inactive)	> 100 µM (inactive)	> 100 µM (inactive)	> 100 µM (inactive)	> 100 µM (inactive)	> 100 µM (inactive)	> 100 µM (inactive)	> 100 µM (inactive)	> 100 µM (inactive)	> 100 µM (inactive)	> 100 µM (inactive)
